Measurements from patent publication US20230312564A1, “AROMATIC RING-LACTAM COMPOUND, PREPARATION METHOD THEREFOR AND USE THEREOF” (SHANGHAI RINGENE BIOPHARMA CO., LTD., priority 2020, published 2023).
Read-outs that look alike come from different tables or passages of the source. Blank lines part the entries; values can stand above or below the molecule they belong to.

What was measured:
[1] = tested on: T1, ERK1/2 kinase; assay: ERK1/2 kinase (Carna) inhibitory activity, Caliper mobility shift; type: biochemical; details: for IC50: read-out: ERK½ IC50
T1 construct: fused on or other part: Carna's ERK products carry a GST tag by vendor knowledge
Method: (1) Preparation of 1×Kinase buffer; (2) preparation of compound concentration gradient: the initial test concentration of the tested compound was 10 μM, which was 3-fold diluted to 10 concentrations, and a duplicate test was conducted, and then the tested compound was diluted in a 96 well plate to a 100-fold final concentration of 10 different concentrations of solution. […] Log (inhibitor) vs. response—Variable slope of the analysis software GraphPad Prism 5 was used to fit the dose-effect curve to obtain the IC50 value of each compound on the enzyme activity.
2. […] (A<10 nM, 10 nM≤B<200 nM, C≥200 nM)

[2] = tested on: Colo-205 cells; assay: Colo-205 tumor cell proliferation, CCK-8, 72 hours; type: cell-based; details: for IC50: 72 hours, CCK-8, read-out: Colo-205 IC50; for cell proliferation inhibitory activity (in words): Colo-205
Method: 1. Test method: Colo-205 cells (ATCC) in logarithmic growth phase were inoculated into a 96-well culture plate at an appropriate density with 90 μL per well. After overnight culture, different concentrations of the compound were added and acted for 72 hours, and a solvent control group (negative control) was set. After the compound was acted on cells for 72 hours, the effect of the compound on cell proliferation was detected by the cell counting kit CCK-8 (Dojindo), and 10 μL of CCK-8 reagent was added to each well. After the plate was placed in a 37° C. incubator for 2 to 4 hours, a full-wavelength microplate reader SpectraMax 190 was adopted for obtaining the readings with a measured wavelength of 450 nm. […] The IC50 value was obtained by four-parameter regression with the software attached to the microplate reader.

[3] = In-vivo pharmacokinetic parameters in mice; design: species or system Balb-c mice; details: for F: PO 5 mg/kg vs IV 1 mg/kg; for AUC(0-inf) / AUC(0-t) / MRT inf / clearance / half-life / Vd / Cmax / Tmax: male, Balb-c, mouse, plasma; for Vd: read-out: Vss
Method: Six male SPF grade SD rats or Balb-c mice (Shanghai Sipple-Bikai Laboratory Animal) were divided into two groups, and the tested compounds were prepared into appropriate solutions or suspensions; one group was administered intravenously (with a dose of 1 mg/kg), and the other group was administered orally (with a dose of 5 mg/kg). Blood samples were collected by jugular vein puncture, and each sample was collected with a volume of about 0.2 mL/time point, and heparin sodium was used for anticoagulation. The time points of blood collection were listed below: 5, 15 and 30 min […], 1, 2, 4, 6, 8 and 24 h after administration; the collected blood samples were placed on ice and centrifuged to separate plasma (centrifugation conditions: 8,000 rpm, 6 min, 2 to 8° C.), and the collected plasma was stored at −80° C. before analysis. Plasma samples were analyzed by LC-MS/MS.
The pharmacokinetic parameters such as AUC0-t, AUC0-∞, MRT0-∞, Cmax, Tmax, T1/2 and Vd of the tested compounds and their mean values and standard deviations were calculated by the pharmacokinetic calculation software WinNonlin5.2 non-compartmental model according to the plasma concentration data. In addition, the bioavailability (F) was calculated by the following formula.
For samples with concentrations below the lower limit of quantitation, while pharmacokinetic parameter calculations were performed, samples sampled before Cmax was reached should be calculated as a zero value and samples sampled after Cmax was reached should be calculated as below limit of quantitation (BLQ).

[4] = Homo sapiens, COLO 205, numeric values
[5] = Homo sapiens, COLO 205, class symbols

IC50 ([1]; numeric values): 1.4 nM
IC50 ([2]; numeric values): 98.6 nM
Molecule: Cc1cccc([C@@H](CO)NC(=O)[C@@H](C)N2Cc3ccc(-c4nc(Nc5ccnn5C)ncc4Cl)c(F)c3C2=O)c1 [Embodiment 32]

F [3]: 25%
AUC(0-inf) ([3]; IV, 1 mg/kg): 0.276 µM·h
AUC(0-t) ([3]; IV, 1 mg/kg): 0.274 µM·h
MRT inf ([3]; IV, 1 mg/kg): 12 min
clearance ([3]; IV, 1 mg/kg): 102 mL/min/kg
half-life ([3]; IV, 1 mg/kg): 24 min
Vd ([3]; IV, 1 mg/kg): 1.3 L/kg
AUC(0-inf) ([3]; PO, 5 mg/kg): 0.338 µM·h
AUC(0-t) ([3]; PO, 5 mg/kg): 0.322 µM·h
Cmax ([3]; PO, 5 mg/kg): 441 nM
Tmax ([3]; PO, 5 mg/kg): 18 min
half-life ([3]; PO, 5 mg/kg): 90 min
Molecule: COc1cc(F)cc([C@@H](CO)NC(=O)[C@@H](C)N2Cc3ccc(-c4nc(NC5CCOCC5)ncc4Cl)c(F)c3C2=O)c1 [Embodiment 33, (R)-2-(6-(5-Chloro-2-((tetrahydro-2H-pyran-4-yl)amino)pyrimidin-4-yl)-7-fluoro-1-oxoisoindolin-2-yl)-N—((S)-1-(3-fluoro-5-methoxyphenyl)-2-hydroxyethyl)propanamide]

F [3]: 19%
AUC(0-inf) ([3]; IV, 1 mg/kg): 0.83 µM·h
AUC(0-t) ([3]; IV, 1 mg/kg): 0.825 µM·h
MRT inf ([3]; IV, 1 mg/kg): 18 min
clearance ([3]; IV, 1 mg/kg): 34 mL/min/kg
half-life ([3]; IV, 1 mg/kg): 48 min
Vd ([3]; IV, 1 mg/kg): 0.7 L/kg
AUC(0-inf) ([3]; PO, 5 mg/kg): 0.806 µM·h
AUC(0-t) ([3]; PO, 5 mg/kg): 0.797 µM·h
Cmax ([3]; PO, 5 mg/kg): 791 nM
Tmax ([3]; PO, 5 mg/kg): 18 min
half-life ([3]; PO, 5 mg/kg): 90 min
Molecule: C[C@H](C(=O)N[C@H](CO)c1cccc(Cl)c1)N1Cc2ccc(-c3nc(NC4CCOCC4)ncc3Cl)c(F)c2C1=O [Embodiment 34, (R)-2-(6-(5-Chloro-2-((tetrahydro-2H-pyran-4-yl)amino)pyrimidin-4-yl)-7-fluoro-1-oxoisoindolin-2-yl)-N—((S)-1-(3-chlorophenyl)-2-hydroxyethyl)propanamide]

IC50 ([1]; numeric values): < 1 nM
IC50 [2, 5]: < 100 nM
Molecule: Cc1cccc([C@@H](CN)NC(=O)[C@@H](C)N2Cc3ccc(-c4nc(NC5CCOCC5)ncc4F)c(F)c3C2=O)c1 [Embodiment 36]
enzyme inhibitory activity (in words) [1]: extremely strong enzyme inhibitory activity
cell proliferation inhibitory activity (in words) [2]: strong cell proliferation inhibitory activity

IC50 ([1]; class symbols): < 10 nM
IC50 [2, 5]: 100 to 1000 nM
Molecule: C[C@H](C(=O)N[C@H](CO)c1cccc(Cl)c1)N1Cc2ccc(-c3nc(NC4CCC(F)(F)CC4)ncc3F)c(F)c2C1=O [Embodiment 38]

The next lines start with the molecule.

Molecule: C[C@H](C(=O)N[C@H](CO)c1cccc(F)c1)N1Cc2ccc(-c3nc(NC4CCOCC4)ncc3Cl)nc2C1=O [Embodiment 20]
enzyme inhibitory activity (in words) [1]: extremely strong enzyme inhibitory activity
IC50 ([1]; numeric values): 1.8 nM
IC50 [2, 4]: 246 nM

Molecule: Cc1cccc([C@@H](CO)NC(=O)[C@@H](C)N2Cc3ccc(-c4ccnc(NC5CCOCC5)c4)c(F)c3C2=O)c1 [Embodiment 22]
enzyme inhibitory activity (in words) [1]: extremely strong enzyme inhibitory activity
IC50 ([1]; numeric values): 1.3 nM
cell proliferation inhibitory activity (in words) [2]: strong cell proliferation inhibitory activity
IC50 [2, 4]: 67.7 nM

Molecule: Cc1cccc([C@@H](CO)NC(=O)[C@@H](C)N2Cc3ccc(-c4nc(NC5CCOCC5)ncc4Cl)c(F)c3C2=O)c1 [Embodiment 25, (R)-2-(6-(5-Chloro-2-((tetrahydro-2H-pyran-4-yl)amino)pyrimidin-4-yl)-7-fluoro-1-oxoisoindolin-2-yl)-N—((S)-2-hydroxy-1-(m-tolyl)ethyl)propanamide]
F [3]: 43%
AUC(0-inf) ([3]; IV, 1 mg/kg): 0.368 µM·h
AUC(0-t) ([3]; IV, 1 mg/kg): 0.364 µM·h
MRT inf ([3]; IV, 1 mg/kg): 18 min
clearance ([3]; IV, 1 mg/kg): 80 mL/min/kg
half-life ([3]; IV, 1 mg/kg): 42 min
Vd ([3]; IV, 1 mg/kg): 1.6 L/kg
AUC(0-inf) ([3]; PO, 5 mg/kg): 0.796 µM·h
AUC(0-t) ([3]; PO, 5 mg/kg): 0.776 µM·h
Cmax ([3]; PO, 5 mg/kg): 955 nM
Tmax ([3]; PO, 5 mg/kg): 18 min
half-life ([3]; PO, 5 mg/kg): 102 min

Molecule: Cc1cccc([C@@H](CO)NC(=O)[C@@H](C)N2Cc3ccc(-c4ccnc(Nc5ccnn5C)n4)c(F)c3C2=O)c1 [Embodiment 27]
IC50 ([1]; numeric values): 1.3 nM
IC50 ([2]; class symbols): < 100 nM

Molecule: Cc1cccc([C@@H](CO)NC(=O)[C@@H](C)N2Cc3ccc(-c4nc(NC5CCOCC5)ncc4F)nc3C2=O)c1 [Embodiment 28]
IC50 ([1]; numeric values): 3.7 nM
IC50 ([2]; class symbols): 100 to 1000 nM

Molecule: Cc1cccc([C@@H](CO)NC(=O)[C@@H](C)N2Cc3ccc(-c4ccnc(NC(C)C)n4)c(F)c3C2=O)c1 [Embodiment 29]
IC50 ([1]; numeric values): 3.6 nM
IC50 ([2]; class symbols): 100 to 1000 nM

Molecule: Cc1cccc([C@@H](CO)NC(=O)[C@@H](C)N2Cc3ccc(-c4ccnc(NC5CCOCC5)n4)nc3C2=O)c1 [Embodiment 30]
IC50 ([1]; numeric values): 6.9 nM
IC50 ([2]; class symbols): 100 to 1000 nM

Molecule: Cc1cccc([C@@H](CO)NC(=O)[C@@H](C)N2Cc3ccc(-c4nc(Nc5ccnn5C)ncc4Cl)c(F)c3C2=O)c1 [Embodiment 32, (R)-2-(6-(5-Chloro-2-((1-methyl-1H-pyrazol-5-yl)amino)pyrimidin-4-yl)-7-fluoro-1-oxoisoindolin-2-yl)-N—((S)-2-hydroxy-1-(m-tolyl)ethyl)propanamide]
F [3]: 26%
AUC(0-inf) ([3]; IV, 1 mg/kg): 0.272 µM·h
AUC(0-t) ([3]; IV, 1 mg/kg): 0.268 µM·h
MRT inf ([3]; IV, 1 mg/kg): 24 min
clearance ([3]; IV, 1 mg/kg): 110 mL/min/kg
half-life ([3]; IV, 1 mg/kg): 60 min
Vd ([3]; IV, 1 mg/kg): 2.7 L/kg
AUC(0-inf) ([3]; PO, 5 mg/kg): 0.347 µM·h
AUC(0-t) ([3]; PO, 5 mg/kg): 0.338 µM·h
Cmax ([3]; PO, 5 mg/kg): 357 nM
Tmax ([3]; PO, 5 mg/kg): 30 min
half-life ([3]; PO, 5 mg/kg): 90 min

Molecule: (R)-2-(3-(5-Chloro-2-((tetrahydro-2H-pyran-4-yl)amino)pyrimidin-4-yl)-5-oxo-5,7-dihydro-6H-pyrrolo[3,4-b]pyridin-6-yl)-N—((S)-2-hydroxy-1-(m-tolyl)ethyl)propanamide [Comparative compound 3, reference compound]
IC50 ([2]; class symbols): > 1000 nM
